Assays:
Test in all cases: combination Emax (second highest fraction inhibited in the dose matrix, 72 h); higher = more inhibition; extreme values may be limits of the assay
[1] = system: EJM (Plasma Cell Myeloma)
Procedure, shortened: (§1)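 Bliss excess equals the observed combination effect minus the expected value EA + EB − EA·EB, where EA and EB are the effects of each agent alone. Combination Emax is the second-highest inhibition within the matrix. Inhibition was scaled from CellTiter-Glo 2.0 luminescence, with 0 set by vehicle wells and 1 by blank wells, after 72 hours of two-drug dosing of cells plated in 1536-well plates.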

[2] = system: NCI-H1993 (Lung Adenocarcinoma)
Procedure, shortened: as §1

[3] = system: NCI-H650 (Lung Adenocarcinoma)
Procedure, shortened: as §1

[4] = system: SK-LU-1 (Lung Adenocarcinoma)
Procedure, shortened: as §1

CN(CCO)CC[C@H](CSc1ccccc1)Nc1ccc(S(=O)(=O)NC(=O)c2ccc(N3CCC([C@@H](O)c4ccccc4-c4ccc(Cl)cc4)CC3)cc2)cc1S(=O)(=O)C(F)(F)F [AZD4320] + CN(C)CCCOc1ccc(-c2ccc3ncc4c(c3c2)n(C2CCOCC2)c(=O)n4C)cn1 [AZD0156] (first compound max 1 µM, 7x7, partner max 1 µM)
combination Emax [1]: 0.162
combination Emax [2]: 0.742
combination Emax [3]: 0.203
combination Emax [4]: 0.322

COc1nnc2ccc(N3CCC(c4ccc(OCCN5CCN(C)C(=O)[C@H]5C)cc4)CC3)nn12 [AZD5153] + C=CCn1c(=O)c2cnc(Nc3ccc(N4CCN(C)CC4)cc3)nc2n1-c1cccc(C(C)(C)O)n1 [AZD1775] (first compound max 1 µM, partner max 1 µM)
combination Emax [1]: 0.867
combination Emax [2]: 0.545
combination Emax [3]: 0.487
combination Emax [4]: 0.442

COc1nnc2ccc(N3CCC(c4ccc(OCCN5CCN(C)C(=O)[C@H]5C)cc4)CC3)nn12 [AZD5153] + CC1(C)CCC(CN2CCN(c3ccc(C(=O)NS(=O)(=O)c4ccc(NCC5CCOCC5)c([N+](=O)[O-])c4)c(Oc4cnc5[nH]ccc5c4)c3)CC2)=C(c2ccc(Cl)cc2)C1 [Venetoclax] (first compound max 1 µM, 7x7, partner max 1 µM)
combination Emax [1]: 0.543
combination Emax [2]: 0.444
combination Emax [3]: 0.381
combination Emax [4]: 0.358

COc1nnc2ccc(N3CCC(c4ccc(OCCN5CCN(C)C(=O)[C@H]5C)cc4)CC3)nn12 [AZD5153] + CCN(CCO)CCCOc1ccc2c(Nc3cc(CC(=O)Nc4cccc(F)c4)[nH]n3)ncnc2c1 [AZD2811] (first compound max 1 µM, 7x7, partner max 1 µM)
combination Emax [1]: 0.613
combination Emax [2]: 0.479
combination Emax [3]: 0.443
combination Emax [4]: 0.404

COc1nnc2ccc(N3CCC(c4ccc(OCCN5CCN(C)C(=O)[C@H]5C)cc4)CC3)nn12 [AZD5153] + C[C@@H]1COCCN1C2=NC(=NC(=C2)C3(CC3)[S@](=N)(=O)C)C4=C5C=CNC5=NC=C4 [AZD6738] (first compound max 1 µM, 7x7, partner max 10 µM)
combination Emax [1]: 0.867
combination Emax [2]: 0.738
combination Emax [3]: 0.51
combination Emax [4]: 0.516

COc1nnc2ccc(N3CCC(c4ccc(OCCN5CCN(C)C(=O)[C@H]5C)cc4)CC3)nn12 [AZD5153] + Cc1c2c(nn1C)CSCc1cc(n(C)n1)CSc1cc(c3ccccc3c1)OCCCc1c(C(=O)O)n(C)c3c-2c(Cl)ccc13 [AZD5991] (first compound max 1 µM, 7x7, partner max 1 µM)
combination Emax [1]: 0.89
combination Emax [2]: 0.552
combination Emax [3]: 0.768
combination Emax [4]: 0.388

COc1nnc2ccc(N3CCC(c4ccc(OCCN5CCN(C)C(=O)[C@H]5C)cc4)CC3)nn12 [AZD5153] + Cn1cnc2c(F)c(Nc3ccc(Br)cc3Cl)c(C(=O)NOCCO)cc21 [Selumetinib] (first compound max 1 µM, 7x7, partner max 10 µM)
combination Emax [1]: 0.619
combination Emax [2]: 0.915
combination Emax [3]: 0.656
combination Emax [4]: 0.46

Cc1c2c(nn1C)CSCc1cc(n(C)n1)CSc1cc(c3ccccc3c1)OCCCc1c(C(=O)O)n(C)c3c-2c(Cl)ccc13 [AZD5991] + C1CN(CCC1(C(=O)N[C@@H](CCO)C2=CC=C(C=C2)Cl)N)C3=NC=NC4=C3C=CN4 [Capivasertib] (first compound max 1 µM, 7x7, partner max 3 µM)
combination Emax [1]: 0.977
combination Emax [2]: 0.461
combination Emax [3]: 0.209
combination Emax [4]: 0.303

Cc1c2c(nn1C)CSCc1cc(n(C)n1)CSc1cc(c3ccccc3c1)OCCCc1c(C(=O)O)n(C)c3c-2c(Cl)ccc13 [AZD5991] + C=CCn1c(=O)c2cnc(Nc3ccc(N4CCN(C)CC4)cc3)nc2n1-c1cccc(C(C)(C)O)n1 [AZD1775] (first compound max 1 µM, partner max 1 µM)
combination Emax [1]: 1
combination Emax [2]: 0.629
combination Emax [3]: 0.748
combination Emax [4]: 0.575

Cc1c2c(nn1C)CSCc1cc(n(C)n1)CSc1cc(c3ccccc3c1)OCCCc1c(C(=O)O)n(C)c3c-2c(Cl)ccc13 [AZD5991] + CC1(C)CCC(CN2CCN(c3ccc(C(=O)NS(=O)(=O)c4ccc(NCC5CCOCC5)c([N+](=O)[O-])c4)c(Oc4cnc5[nH]ccc5c4)c3)CC2)=C(c2ccc(Cl)cc2)C1 [Venetoclax] (first compound max 1 µM, 7x7, partner max 1 µM)
combination Emax [1]: 0.959
combination Emax [2]: 0.325
combination Emax [3]: 0.329
combination Emax [4]: 0.258

Cc1c2c(nn1C)CSCc1cc(n(C)n1)CSc1cc(c3ccccc3c1)OCCCc1c(C(=O)O)n(C)c3c-2c(Cl)ccc13 [AZD5991] + CCN(CCO)CCCOc1ccc2c(Nc3cc(CC(=O)Nc4cccc(F)c4)[nH]n3)ncnc2c1 [AZD2811] (first compound max 1 µM, 7x7, partner max 1 µM)
combination Emax [1]: 0.949
combination Emax [2]: 0.232
combination Emax [3]: 0.61
combination Emax [4]: 0.41

Cc1c2c(nn1C)CSCc1cc(n(C)n1)CSc1cc(c3ccccc3c1)OCCCc1c(C(=O)O)n(C)c3c-2c(Cl)ccc13 [AZD5991] + CN(C)CCCOc1ccc(-c2ccc3ncc4c(c3c2)n(C2CCOCC2)c(=O)n4C)cn1 [AZD0156] (first compound max 1 µM, 7x7, partner max 1 µM)
combination Emax [1]: 0.965
combination Emax [2]: 0.474
combination Emax [3]: 0.272
combination Emax [4]: 0.3

Cc1c2c(nn1C)CSCc1cc(n(C)n1)CSc1cc(c3ccccc3c1)OCCCc1c(C(=O)O)n(C)c3c-2c(Cl)ccc13 [AZD5991] + C[C@@H]1COCCN1C2=NC(=NC(=C2)C3(CC3)[S@](=N)(=O)C)C4=C5C=CNC5=NC=C4 [AZD6738] (first compound max 1 µM, 7x7, partner max 10 µM)
combination Emax [1]: 1
combination Emax [2]: 0.517
combination Emax [3]: 0.352
combination Emax [4]: 0.521

Cc1c2c(nn1C)CSCc1cc(n(C)n1)CSc1cc(c3ccccc3c1)OCCCc1c(C(=O)O)n(C)c3c-2c(Cl)ccc13 [AZD5991] + C[C@@H](Nc1cc(F)cc(F)c1)c1cc(C(=O)N(C)C)cc2c(=O)cc(N3CCOCC3)oc12 [AZD8186] (first compound max 1 µM, 7x7, partner max 3 µM)
combination Emax [1]: 0.929
combination Emax [2]: 0.455
combination Emax [3]: 0.22
combination Emax [4]: 0.384

Cc1c2c(nn1C)CSCc1cc(n(C)n1)CSc1cc(c3ccccc3c1)OCCCc1c(C(=O)O)n(C)c3c-2c(Cl)ccc13 [AZD5991] + Cc1cc2ncnn2cc1Nc1ncc2c(n1)n(C1CCOCC1)c(=O)n2C [AZD7648] (first compound max 1 µM, 7x7, partner max 10 µM)
combination Emax [1]: 0.971
combination Emax [2]: 0.492
combination Emax [3]: 0.203
combination Emax [4]: 0.399

C[C@@H]1COCCN1c1cc(C2([S@](C)(=N)=O)CC2)nc(-c2ccnc3[nH]ccc23)n1 [AZD6738] + O=C(c1cc(Cc2n[nH]c(=O)c3ccccc23)ccc1F)N1CCN(C(=O)C2CC2)CC1 [Olaparib] (first compound max 10 µM, 7x7, partner max 10 µM)
combination Emax [1]: 0.899
combination Emax [2]: 0.549
combination Emax [3]: 0.193
combination Emax [4]: 0.473

NC1(C(=O)N[C@@H](CCO)c2ccc(Cl)cc2)CCN(c2ncnc3[nH]ccc23)CC1 [Capivasertib] + CC(=O)c1c(C)c2cnc(Nc3ccc(N4CCNCC4)cn3)nc2n(C2CCCC2)c1=O [Palbociclib] (first compound max 10 µM, 7x7, partner max 10 µM)
combination Emax [1]: 0.391
combination Emax [2]: 0.647
combination Emax [3]: 0.262
combination Emax [4]: 0.4

NC1(C(=O)N[C@@H](CCO)c2ccc(Cl)cc2)CCN(c2ncnc3[nH]ccc23)CC1 [Capivasertib] + CC(C)n1c(=O)n(C)c2cnc3cc(F)c(-c4ccc(OCCCN5CCCCC5)nc4)cc3c21 [AZD1390] (first compound max 10 µM, 7x7, partner max 0.3 µM)
combination Emax [1]: 0.292
combination Emax [2]: 0.595
combination Emax [3]: 0.268
combination Emax [4]: 0.195

NC1(C(=O)N[C@@H](CCO)c2ccc(Cl)cc2)CCN(c2ncnc3[nH]ccc23)CC1 [Capivasertib] + CCN(CCO)CCCOc1ccc2c(Nc3cc(CC(=O)Nc4cccc(F)c4)[nH]n3)ncnc2c1 [AZD2811] (first compound max 10 µM, 7x7, partner max 1 µM)
combination Emax [1]: 0.43
combination Emax [2]: 0.605
combination Emax [3]: 0.346
combination Emax [4]: 0.195

NC1(C(=O)N[C@@H](CCO)c2ccc(Cl)cc2)CCN(c2ncnc3[nH]ccc23)CC1 [Capivasertib] + COc1nnc2ccc(N3CCC(c4ccc(OCCN5CCN(C)C(=O)[C@H]5C)cc4)CC3)nn12 [AZD5153] (first compound max 10 µM, 7x7, partner max 1 µM)
combination Emax [1]: 0.658
combination Emax [2]: 0.676
combination Emax [3]: 0.579
combination Emax [4]: 0.381
